Reference: patent publication US12250948B2, “Methods for the control of arthropods using near-ideal gas phase hydrogen peroxide” (Synexis LLC, priority 2013, dated 2025)
Like-named read-outs stand apart in the source and are kept apart here.

Tests used:
Brown Dog Tick = test: Laboratory chamber test of PHPG, knockdown and mortality; format: in vivo; conditions: PHPG 0.6 ppm
Protocol: (§1) The effects of Purified Hydrogen Peroxide Gas (PHPG) on selected arthropod species is performed to determine the efficacy on controlling an arthropod using the indirect dispersion of PHPG in a space. In these experiments, the knockdown and mortality rates in mosquitoes, bed bugs, termites, ants, moths, house flies, and spiders is assessed.
(§2) Black wood ants, house flies (adult and pupae), large saturniid moths, termites (soldier and living), and cellar spiders are obtained from Carolina Supplies and shipped overnight. All organisms are fed prior to shipping from Carolina Supplies. Bed bugs and mosquitoes are sourced locally due to government shipping restrictions. The test samples are stored in a cabinet at ambient temperature and humidity until use in the study. The samples are labeled and color-coded for easy identification. In certain experiments, specimens of wild caught arthropods are used in the controlled experiments, including for example Brazilian cockroaches.
(§3) All testing is conducted in a sealed, Static Dissipative PVC chamber, Terra Universal (Fullerton, CA) Model 3305-10F: 59 inches W×24 inches D×25 inches H. With additional airlock Terra Universal Model 1680-81B 11.5 inches W×10 inches D×10.5 inches 1-1. Arthropods are placed inside transfer containers (pint size paper containers). The top and bottom diameters of these containers are 3.75 and 2.87 inches respectively with a height of 3.5 inches. All arthropods are released once the airlock is sealed. Arthropods are allowed to recover following PHPG exposure and observed in 8 oz glass Pyrex@(Tewksbury, MA) containers with sealed glass lids.
Three replicates of ten of each arthropod are subjected to PHPG. […] If at 24 hours mortality is less 90%, additional readings are taken following 48 hours of PHPG exposure. […] Time frames are recorded for each replicate. […]
If all ten arthropods are recorded as knocked down or deceased during any observation before 15 minutes have elapsed, subsequent observations are not made. […] All dead arthropods are confirmed by probing or agitation to make sure that they are unable to move (any that show movement visible to the naked eye are recorded as moribund). Arthropods that can crawl or right themselves when placed on their backs are recorded as being alive.
(§4) After the knockdown counts are complete, the arthropods are maintained in the laboratory at ambient temperature and humidity conditions with a normal 8:16 light:dark cycle for 24 hours. Additional mortality readings are taken at 48 hours if less than 90% mortality is recorded at 24 hours. A 48 hour reading depends upon control mortality remaining less than 10%. Temperature and humidity are recorded in the treatment area, and in the laboratory where the arthropods are subsequently held for the duration of the test.

Bedbugs = conditions: PHPG 0.6 ppm
Protocol: as §1, §2, §3
(§5) Three replicates of ten of each arthropod are subjected to PHPG. An additional three replicates are subjected to a non PHPG producing device and serve as untreated controls. The arthropods are observed for knockdown at 0.5, 1, 2, 3, 4, 5, and 15 minutes. Mortality counts are taken after 24 hours of PHPG exposure. If at 24 hours mortality is less 90%, additional readings are taken following 48 hours of PHPG exposure. The test samples are exposed to the test environment containing PHPG until a 90% knockdown is achieved. The test samples are provided PHPG emitted from a PHPG producing device in the center of the test chamber. Time frames are recorded for each replicate. Just prior to treatment the arthropods are transferred into the transfer containers. Forty eight hours after treatment, they are removed from the treatment chamber and transferred to recovery containers and covered with screened lids for observation.
(§6) Knockdown occurs when an arthropod cannot right itself when placed on its back but is still able to move at least one body part. The arthropods are then transferred from the treatment chamber to recovery containers. Another knockdown/mortality observation is made 15 minutes later.
(§7) If all ten arthropods are recorded as knocked down or deceased during any observation before 15 minutes have elapsed, subsequent observations are not made. Mortality counts are made at 24 hours, and 48 hours or sooner (if applicable). All dead arthropods are confirmed by probing or agitation to make sure that they are unable to move (any that show movement visible to the naked eye are recorded as moribund). Arthropods that can crawl or right themselves when placed on their backs are recorded as being alive.
as §4

Carpenter Ants = conditions: PHPG 1.0 ppm
Protocol: as §1, §2, §3, §5, §6, §7, §4

Cellar Spiders = conditions: PHPG 1.0 ppm
Protocol: as §1, §2, §3, §5, §6, §7, §4

Cockroaches = tested on: Cockroaches
Protocol: as §1, §2, §3, §5, §6, §7, §4

Deer Ticks = conditions: PHPG 0.6 ppm
Protocol: as §1, §2, §3, §5, §6, §7, §4

Fruit Flies = conditions: PHPG 0.3 ppm, exposure 72 hours
Protocol: as §1, §2, §3, §5, §6, §7, §4

House Fly Pupae = conditions: PHPG 0.5 ppm
Protocol: as §1, §2, §3, §5, §6, §7, §4

Tarantula = tested on: Tarantula
Protocol: as §1, §2, §3, §5, §6, §7, §4

Termites = tested on: Termites
Protocol: as §1, §2, §3, §5, §6, §7, §4

Wolf Spiders = conditions: PHPG 1.0 ppm
Protocol: as §1, §2, §3, §5, §6, §7, §4

Crickets = conditions: PHPG 0.4 ppm
House Flies = conditions: PHPG 0.2 ppm
Mosquitoes = conditions: PHPG 0.2 ppm
Stink Bugs = conditions: PHPG 0.3 ppm
Yellow Jackets and Nest = conditions: PHPG 0.3 ppm
[1] = tested on: arthropods including crickets, ants, spiders, and house flies; test: Real world test of PHPG in 1400 sq ft Pool House; conditions: after 27 hours
Text: All PHPG concentration readings take place with Draeger products. A Pac III, Polytron 7000 or Draeger Tubes are utilized in all tests, generally according to manufacturer's instructions. […] Most commonly, Draeger Tubes are used after clipping on both ends and placement in a ACCURO™ Pump. Per manufacturer instructions, the tubes are pumped 100 times and the level of PHPG determined by observing the color change in the crystals.
Two PHPG generating devices were placed in the space for an initial cleansing and to establish levels.

OO [PHPG, Purified Hydrogen Peroxide Gas]
Attempt to Flee? (Brown Dog Tick): Yes
Percent Killed (Brown Dog Tick; exposure 3 hours): 70%
Percent Killed (Brown Dog Tick; exposure 60 hours): 100%
Observations (Brown Dog Tick; until they succumbed): All ticks searched for an exit
Observations: nymphs (Bedbugs; Bedbug nymphs hatched from immature eggs): Nymphs died in seconds.
Observations: all bedbugs reacted within (Bedbugs; Bedbugs): fifteen seconds.
Observations: final outcome (Bedbugs; Bedbugs): All died over time.
Percent Killed (Bedbugs; Bedbugs, exposure 3 hours): 50%
Percent Killed (Bedbugs; Bedbugs, exposure 60 hours): 100%
Attempt to Flee? (Bedbugs; Bedbugs, cell continues 'Went Dormant'): No,
Attempt to Flee? (Carpenter Ants): Yes
Observations: order of death (Carpenter Ants): exit. Smallest ants died first.
Percent Killed (Carpenter Ants; exposure 24 Hours): 15%
Observations: ants collected in areas where fresh air was seeping into the chamber and remained inactive (Carpenter Ants; when unable to flee): When unable 50% collected
Attempt to Flee? (Cellar Spiders): Yes
Observations: smallest spiders died within (Cellar Spiders): one hour. Larger spiders
Percent Killed (Cellar Spiders; exposure 24 Hours): 33%
Attempt to Flee? (Cockroaches; Cockroaches, PHPG 0.6 ppm): No
Percent Killed (Cockroaches; Cockroaches, PHPG 0.6 ppm, exposure 24 Hours): 0%
Observations (Cockroaches; Cockroaches, low level of PHPG (0.6 ppm), did not react to the gas): Appeared resistant at low
Resistance to PHPG (Cockroaches; adult cockroaches, PHPG levels up to 0.6 ppm for 24 hours): resistant
Attempt to Flee? (Deer Ticks): Yes
Percent Killed (Deer Ticks; exposure 3 hours): 70%
Percent Killed (Deer Ticks; exposure 60 hours): 100%
Observations (Deer Ticks; until they succumbed): All ticks searched for an exit
Percent Killed (Fruit Flies): 100%
Observations: hatching (House Fly Pupae; 100 pupae expected to hatch within 3 days, within one week): within 3 days. Did not hatch
Percent Killed (House Fly Pupae; House Fly Pupae, exposure 7 days): 100%
Attempt to Flee? (Tarantula; Tarantula, PHPG 0.6 ppm): No
Percent Killed (Tarantula; Tarantula, PHPG 0.6 ppm, exposure 24 hours): 0%
Observations (Tarantula; Tarantula, PHPG 0.6 ppm, did not react to the gas): Appeared resistant. Did not
Resistance to PHPG (Tarantula; tarantula spiders, PHPG levels up to 0.6 ppm for 24 hours): resistant
Attempt to Flee? (Termites; PHPG 0.1 ppm, cell continues 'Then went dormant'): Yes,
Percent Killed (Termites; PHPG 0.1 ppm, exposure 24 hours): 100%
Observations (Termites; very low exposure (PHPG 0.1 ppm), sought shelter): went dormant. Larger
Attempt to Flee? (Wolf Spiders): Yes
Observations (Wolf Spiders): Very susceptible; and
Percent Killed (Wolf Spiders; exposure 1 hour): 100%
Percent Killed (Crickets; exposure 21 hours, garden house): 100%
Attempt to Flee? (Crickets; tried to exit through HVAC vents): Yes
Attempt to Flee? (House Flies): Yes
Observations: final outcome (House Flies): All died within day
Observations: first deaths within (House Flies): one hour
Percent Killed (House Flies; exposure 24 hours): 100%
Percent Killed (Lice and nits; Lice and nits, PHPG 0.2 ppm, exposure 2 days): 100%
Observations: bedding and other exposed items (Lice and nits; Lice and nits, PHPG 0.2 ppm, within two days): items fully treated within two
Elimination of all signs of lice (Lice and nits; child subject, from initiation of PHPG treatment): lice free within two days
Attempt to Flee? (Mosquitoes): Yes
Percent Killed (Mosquitoes; exposure 2 hours): 100%
Attempt to Flee? (Stink Bugs): Yes
Percent Killed (Stink Bugs; exposure 24 hours): 100%
Observations: unhatched yellow jackets in the nest (Yellow Jackets and Nest; 1 day, nest was hatching): jackets in the nest died.
Percent Killed (Yellow Jackets and Nest; Yellow Jackets and Nest, exposure 1 day): 100%
Attempt to Flee? (Yellow Jackets and Nest; Yellow Jackets): Yes
Live insects observed ([1]; PHPG 0.4 ppm): No live insects were observed
Number of arthropods confirmed dead ([1]; two PHPG generating devices, PHPG 0.4 ppm at 27 hours): 109
